Data taken from patent publication US4916145A, “Substituted n-[(pyridyl)alkyl]aryl-carboxamide” (Hoffmann-La Roche Inc., priority 1987, dated 1990).

What was measured:
[1] = target: T1, PAF binding, dog platelets (Canis lupus familiaris, UniProt A0A8I3NSH0); assay: PAF Binding Assay (3H-PAF binding to washed dog platelets); settings: 10 minutes at room temperature
T1 sequence (A0A8I3NSH0 1-343): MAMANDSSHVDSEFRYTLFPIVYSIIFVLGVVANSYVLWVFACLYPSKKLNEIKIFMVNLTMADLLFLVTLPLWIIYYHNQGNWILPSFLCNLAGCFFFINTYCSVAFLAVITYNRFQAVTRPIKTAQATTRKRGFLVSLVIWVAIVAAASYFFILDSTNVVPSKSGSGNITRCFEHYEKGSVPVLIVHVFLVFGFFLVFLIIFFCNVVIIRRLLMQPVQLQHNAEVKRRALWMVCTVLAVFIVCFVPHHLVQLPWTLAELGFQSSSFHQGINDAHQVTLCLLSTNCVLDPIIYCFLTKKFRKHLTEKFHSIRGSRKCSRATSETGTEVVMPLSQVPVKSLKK
Protocol: The binding assay was performed in 400 μl polyethylene microcentrifuge tubes (Beckman) containing 50 μl of an oil mixture of 2 parts Siliconol AR200 (Serva): 1 part Silicone Fluid (Arthur H. Thomas). Buffer, standards, or analogs 150 μl total volume) were added to the tubes. Radiolabelled ^3 H-PAF (50 μl) was then added to the tubes. The reaction was started by the addition of 50 μl of dog platelets (2×10^7 platelets). The tubes were capped, inverted several times to mix, and incubated for 10 minutes at room temperature. The platelets were separated from the incubation mixture by centrifuging 1 minute in a Beckman Microfuge B centrifuge. The tip of the microfuge tube was cut off, and the platelets were washed out of the tip with 200 μl of 50% methanol (Burdick and Jackson). Aquasol (NEN, 10 ml) was added and the radioactivity in the samples was determined using an LS 8100 Beckman liquid scintillation counter linked to a Techtran tape recorder. Data was processed through an in-house computer system. Alternatively, radioactivity was determined using a Searle Mark III liquid scintillation counter linked to a Iso-Data microprocessor.
Blood was collected from anesthesized or unanesthesized dogs into 5ml plastic centrifuge tubes containing 3.8% sodium citrate as the anticoagulant (1 volume of citrate/9 volumes of blood). The red cells were removed by centrifugation for 15 minutes at 600 rpm (100-125 g) at room temperature. An aliquot of the supernatant platelet rich Plasma (PRP) was saved for cell counting and the remainder was acidified to pH 6.5 with 0.15M citric acid. The platelet pellet was obtained after a 10 minute centrifugation at 2000 rpm (1000 g) at room temperature. Washed platelets were prepared by resuspending the platelet pellet once with PBS containing 1 mM EDTA, centrifuging as noted, and then resuspending the platelets in 0.1% BSA-PBS. An aliquot of the washed platelets was counted, platelets used for binding assays were diluted to 2×10^7 platelets/assay tube (4×10^8 platelets/ml).

[2] = test system: PAF-Induced Bronchoconstriction; assay: PAF-Induced Bronchoconstriction Assay; assay type: in vivo, guinea pig; settings: for inhibition in vivo at 1 mg/kg / inhibition in vivo at 50 mg/kg: Cavia porcellus; for inhibition in vivo at 1 mg/kg: 1 min; for inhibition in vivo at 50 mg/kg: po, 2 hours pretreatment
Protocol: The in vivo ability of compounds to inhibit PAF-induced bronchoconstriction in guinea pigs was assessed by the intravenous and oral routes of administration. The intravenous technique utilized male guinea pigs (Hartley strain, Charles River) weighing 400-600 g. Animals were anesthetized with urethane (2 g/kg) intraperitoneally and a polyethylene cannula was inserted into the jugular vein for intravenous drug administration. Tracheal pressure ([…]) was recorded from a Statham pressure transducer (P 32 AA). Propranolol was administered 5 minutes prior to challenge with PAF. Two minutes later spontaneous breathing was arrested with succinylcholine chloride (1.2 mg/kg) administered intravenously, and the animals were ventilated with a Harvard (Model 680) small animal respirator set at 40 breaths/min and 4.0 cc stroke volume. Control vehicle or test drug was administered through the cannula into the jugular vein 1 minute before the animals were challenged with a maximum constrictory dose of PAF (1.0 μg/kg) given intravenously. The change in tracheal pressure was averaged for four control and four drug-treated animals and percent inhibition was calculated.
For determination of oral activity, animals were dosed with test compound or vehicle two hours prior to challenge with PAF (1.0 μg/kg, i.v.).
The change in tracheal pressure is determined by subtracting the steady state baseline achieved after administration of succinylcholine from the peak bronchoconstriction seen after challenge with PAF. The mean change in tracheal pressure is calculated for each test compound and compared to the mean change in tracheal pressure for the control animals to give the percent inhibition of bronchoconstriction. The standard error is calculated as the standard error of the mean.

[3] = 1 mg/kg iv, 1 minute pretreatment

| SMILES | IC50 [1] [µM] | inhibition in vivo at 1 mg/kg [2, 3] [%] | inhibition in vivo at 50 mg/kg [2] [%] | PAF-Induced Bronchoconstriction % Inhibition, 1 mg/kg iv [2, 3] |
| --- | --- | --- | --- | --- |
| COc1ccc(-c2ccc(C(=O)NCCCCc3cccnc3)cc2OC)cc1OC [2,3',4'-trimethoxy-N-[4-(3-pyridinyl)butyl]-[1,1'-biphenyl]-4-carboxamide] | 0.3 | 58 ± 10 | – | – |
| COc1ccc(-c2ccc(C(=O)NCCCCc3cccnc3)cc2Br)cc1OC [2-Bromo-3',4'-dimethoxy-N-[4-(3-pyridinyl)butyl]-[1,1'biphenyl]-4-carboxamide] | 0.2 | 81 ± 10 | 74 ± 12 | – |
| CCCCc1cc(C(=O)NCCCCc2cccnc2)ccc1-c1ccc(OC)c(OC)c1 [2-Butyl-3',4'-dimethoxy-N-[4-(3-pyridinyl)butyl][1,1'-biphenyl)-4-carboxamide] | – | 6 ± 4 | – | – |
| CCCCc1cc(C(=O)NCCCCc2cccnc2)ccc1-c1ccccc1 [2-Butyl-N-[4-(3-pyridinyl)butyl][1,1'-biphenyl]-4-carboxamide] | 0.5 | 27 ± 10 | – | – |
| COc1ccc(-c2ccc(C(=O)NCCCCc3cccnc3)cc2[N+](=O)[O-])cc1OC [2-Nitro-3',4'-dimethoxy-N-[4-(3-pyridinyl)-butyl][1,1'-biphenyl]-4-carboxamide] | 0.2 | 81 ± 15 | 62 ± 15 | – |
| CCCc1cc(C(=O)NCCCCc2cccnc2)ccc1-c1ccccc1 [2-Propyl-N-[4-(3-pyridinyl)butyl][1,1'-biphenyl]-4-carboxamide] | 0.06 | 38 ± 8 | – | – |
| Cc1ccc(-c2ccc(C(=S)NCCCCc3cccnc3)cc2)cc1C [3',4'-Dimethyl-N-[4-(3-pyridinyl)butyl][1,1-biphenyl]-4-carbothioamide] | 0.6 | – | – | potentiation |
| CCCCc1ccc(C(=O)NCCCCc2cccnc2)cc1CCCC [3,4-Dibutyl-N-[4-(3-pyridinyl)butyl]benzamide] | > 1 | – | – | – |
| O=C(NCCCCc1cccnc1)c1ccc(-c2cccc(F)c2)c(-c2cccc(F)c2)c1 [3,4-bis-(3-Fluorophenyl)-N-[4-(3-pyridinyl)butyl]-benzamide] | 0.4 | 12 ± 2 | – | – |
| COc1ccc(-c2ccc(C(=O)NCCCCc3cccnc3)cc2-c2ccc(OC)cc2)cc1 [3,4-bis-(4,Methoxyphenyl)-N-[4-(3-pyridinyl)butyl]-benzamide] | 0.125 | 26 ± 6 | – | – |
| Cc1ccc(-c2ccc(-c3nnn(CCCc4cccnc4)n3)cc2)cc1C [3-[3-[5-(3',4'-Dimethyl-[1,1'-biphenyl]-4-yl)-2H-tetrazol-2-yl]propyl]pyridine] | > 1 | 11 ± 3 | – | – |
| Cc1ccc(-c2ccc(-c3nnn(CCCCc4cccnc4)n3)cc2)cc1C [3-[4-[5-(3',4'-Dimethyl-[1,1'-biphenyl]-4-yl)-2H-tetrazol-2-yl]butyl]pyridine] | > 1 | 17 ± 15 | – | – |
| Cc1ccc(-c2ccc(-c3nnn(CCCCCCc4cccnc4)n3)cc2)cc1C [3-[6-[5-(3',4'-Dimethyl-[1,1'-biphenyl]-4-yl)-2H-tetrazol-2-yl]hexyl]pyridine] | > 1 | 40 ± 4 | – | – |
| O=C(NCCCCc1cccnc1)c1ccc(C2CCCCC2)cc1 [4-Cyclohexyl-N-[4-(3-pyridinyl)butyl]-benzamide] | 0.25 | 17 ± 7 | – | – |
| CCCCc1cc(C(=O)N[C@H](C)CCCc2cccnc2)ccc1-c1ccc(OC)c(OC)c1 [(R)-2-Butyl-3',4'-dimethoxy-N-[1-Methyl-4-(3-pyridinyl)butyl][1,1'-biphenyl]-4-carboxamide] | – | 55 ± 12 | – | – |
| COc1ccc(-c2ccc(C(=O)N[C@H](C)CCCc3cccnc3)cc2)cc1OC [(R)-3',4'-Dimethoxy-N-[1-methyl-4-(3-pyridinyl)butyl][1,1'-biphenyl]-4-carboxamide] | – | 65 ± 11 | 88 ± 3 | – |
